Patent US20220117938A1, “COMBINATON THERAPY WITH A DON PRODRUG AND AN IMMUNE CHECKPOINT INHIBITOR” (DRACEN PHARMACEUTICALS, INC., priority 2019, published 2022)

System: Ninety four (94) cell lines and PBMC
Assay: Cell viability assay, SRB staining, 94 cell lines and PBMC (Example 7, Experiment 2)
Assay type: cell-based
Description: Ninety four (94) cell lines were seeded at a density varying from 500 to 7000 cells/well depending on their growth characteristics. PBMC were seeded at the density 50,000-100,000 cells/well. Cells were incubated for 48 h prior to compound treatment. Compound 1 and DON were evaluated at a concertation range of 1 nM up to 100 μM. Compound 1 dilutions in DMSO and DON dilutions in PBS were performed in 96-well 0.5 mL plates (Greiner Bio-One, Germany). Compounds were then diluted 1:100 in RPMI medium. […] of cells were treated by mixing with 10 μL of the compound-containing media (resulting in a final DMSO concentration of 0.1%). The cells were allowed to grow at 37° C. for 120 h. Cells were fixed to the surface by addition of 10% TCA (for adherent growing cells) or 50% TCA (for semi-adherent growing cells or cells growing in suspension). After an hour of incubation at 4° C., plates were washed twice with 400 μL of deionized water and dried. Cells were then stained with 100 μL of 0.04% wt/v SRB. The plates were incubated at room temperature for at least 30 min and washed six times with 1% acetic acid to remove unbound stain. The plates were left to dry at room temperature and bound SRB was solubilized with 100 μL of 10 mM Tris base. Optical density was measured at 492, 520 and 560 nm using a Deelux-LED96 plate reader (Deelux Labortechnik GmbH, Germany).
Cell lines were purchased directly from the ATCC, NCI, CLS, and DSMZ cell line collections. A master bank and working aliquots were prepared. Cells used for the study had undergone less than 20 passages. To rule out potential contamination or wrong assignment, all cell lines were tested by STR analysis. Absence of mycoplasma contamination was confirmed for all cell lines used in the studies.
The cell lines were grown in the media recommended by the suppliers in the presence of 100 U/mL penicillin and 100 μg/mL streptomycin supplied with 10% FCS (PAA, Germany). RPMI 1640, DMEM, and MEM Earle's medium were from PAA (Coelbe, Germany), supplements 2 mM L-glutamine, 1 mM Na-pyruvate and 1% NEAA were from PAA (Coelbe, Germany), 2.5% horse serum, hydrocortisone, transferin, beta-estradiol, selenite and 1 U/mL insulin from Sigma-Aldrich (Munich, Germany). RPMI medium was used for culturing the following cell lines: 5637, 22RV1, 7860, A2780, A431, A549, ACHN, ASPC1, BT20, BXPC3, CAKI1, CLS439, COLO205, COLO678, DLD1, DU145, EFO21, EJ28, HCT15, HS578T, IGROV1, JAR, LOVO, MCF7, MDA MB231, MDA MB435, MDA MB436, MDA MB468, MHHES1, MT3, NCI H292, NCI H358M, NCI H460, NCIH82, OVCAR3, OVCAR4, PANC 1005 (addition of insulin), PBMC, PC3, RDES, SF268, SF295, SKBR3, SK MEL28, SKMEL5, SKOV3, SW620, U2OS, UMUC3, and U031.
DMEM medium was used to culture A204, A375, A673, C33A, CASKI, HCT116, HEPG2, HS729, HT29, J82, MG63, MIAPACA2 (addition of horse serum), PANC1, PLCPRF5, RD, SAOS2, SKLMS1, SKNAS, SNB75, T24, and TE671.
MEM Earle's medium was used for CACO2, CALU6, HEK293, HELA, HT1080, IMR90, JEG3, JIMT1, SKHEP1, SKNSH, and U87MG. Cell seeding conditions were optimized for each cell line. The cell seeding density varied from 500 to 7000 cells/well depending on their growth characteristics. Peripheral blood mononuclear cells (PBMC) were freshly isolated from whole blood of an anonymous donor through density gradient centrifugation using Ficoll solution (d=1.077). In short, blood was diluted 1:1 with PBS and carefully placed on the Ficoll. After centrifugation 1000×g for 15 min (braking rate 0), the ring containing mainly leucocytes was collected in PBS followed by three times washing with PBS to reduce the platelets. PBMC were seeded at the density 50,000-100,000 cells/well. Cells were grown in 5% CO2 atmosphere in a NB-203XXL incubator (N-BIOTEK Inc., Korea).
Ninety-four cell lines were tested in parallel. Cell growth and treatment were performed in 96 well microtitre plates CELLSTAR® (Greiner Bio-One, Germany). […]

[1] = Homo sapiens, 22Rv1, 22RV1, prostate
[2] = Homo sapiens, 786-0, 786O, kidney
[3] = Homo sapiens, A204, A204, muscle
[4] = Homo sapiens, A673, A673, muscle
[5] = Homo sapiens, A2780, A2780, ovary
[6] = Homo sapiens, A-375, A375, skin
[7] = Homo sapiens, A-431, A431, skin
[8] = Homo sapiens, ASPC1, ASPC1, pancreas
[9] = Homo sapiens, BT-20, BT20, breast
[10] = Homo sapiens, C-33-A, C33A, endometrial
[11] = Homo sapiens, CAKI-1, CAKI1, kidney
[12] = Homo sapiens, COLO 205, COLO205, colon
[13] = Homo sapiens, COLO-678, COLO678, colon
[14] = Homo sapiens, Ca-Ski, CASKI, endometrial
[15] = Homo sapiens, Caco-2, CACO2, colon
[16] = Homo sapiens, Calu-6, CALU6, lung
[17] = Homo sapiens, DLD-1, DLD1, colon
[18] = Homo sapiens, DU-145, DU145, prostate
[19] = Homo sapiens, EFO-21, EFO21, ovary
[20] = Homo sapiens, EJ-28, EJ28, bladder
[21] = Homo sapiens, Granta-519, GRANTA-519, hematological
[22] = Homo sapiens, HCT-15, HCT15, colon
[23] = Homo sapiens, HCT-116, HCT116, colon
[24] = Homo sapiens, HEK293, HEK293, kidney
[25] = Homo sapiens, HL-60, HL-60, hematological
[26] = Homo sapiens, HT-29, HT29, colon
[27] = Homo sapiens, HT-1080, HT1080, connective tissue
[28] = Homo sapiens, HeLa, endometrial
[29] = Homo sapiens, HepG2, HEPG2, liver
[30] = Homo sapiens, IGROV-1, IGROV1, ovary
[31] = Homo sapiens, JEG-3, JEG3, placenta
[32] = Homo sapiens, JIMT-1, JIMT1, breast
[33] = Homo sapiens, K562, K-562, hematological
[34] = Homo sapiens, Kasumi 1, KASUMI-1, hematological
[35] = Homo sapiens, L-363, L-363, hematological
[36] = Homo sapiens, MCF7, MCF7, breast
[37] = Homo sapiens, MDA-MB-231, MDAMB231, breast
[38] = Homo sapiens, MDA-MB-435, MDAMB435, skin

Compound: [N-]=[N+]=CC(=O)CC[C@H](N)C(=O)O [DON, 6-Diazo-5-oxo-L-norleucine, reference compound]
- IC50 (5637, bladder): 0.881 µM
- IC50 (CLS439, bladder): 7.82 µM
- GI50 [1]: 0.981 µM
- IC50 [1]: 1.04 µM
- GI50 [2]: 2.39 µM
- IC50 [2]: 2.93 µM
- GI50 [3]: 4.99 µM
- IC50 [3]: 17 µM
- GI50 (Homo sapiens, A549, A549, lung): 4.05 µM
- IC50 (Homo sapiens, A549, A549, lung): 4.49 µM
- GI50 [4]: 1.95 µM
- IC50 [4]: 2.2 µM
- GI50 [5]: 3.65 µM
- IC50 [5]: 3.9 µM
- GI50 [6]: 3.15 µM
- IC50 [6]: 3.33 µM
- GI50 [7]: 6.5 µM
- IC50 [7]: 8.52 µM
- GI50 (Homo sapiens, ACHN, kidney): 5.34 µM
- IC50 (Homo sapiens, ACHN, kidney): 6.34 µM
- GI50 [8]: 3.92 µM
- IC50 [8]: 5.58 µM
- GI50 [9]: 16.8 µM
- IC50 [9]: 51.1 µM
- GI50 (Homo sapiens, BXPC-3, BXPC3, pancreas): 1.45 µM
- GI50 [10]: 6.48 µM
- IC50 [10]: 7.04 µM
- GI50 [11]: 1.16 µM
- IC50 [11]: 1.62 µM
- GI50 [12]: 1.32 µM
- IC50 [12]: 2.01 µM
- GI50 [13]: 58.9 µM
- IC50 [13]: 152 µM
- GI50 [14]: 5.49 µM
- IC50 [14]: 6.51 µM
- GI50 [15]: 11.2 µM
- IC50 [15]: 18.6 µM
- GI50 [16]: 6.05 µM
- IC50 [16]: 6.97 µM
- GI50 [17]: 0.906 µM
- IC50 [17]: 1.02 µM
- GI50 [18]: 5.24 µM
- IC50 [18]: 6.16 µM
- GI50 [19]: 6.32 µM
- IC50 [19]: 14.6 µM
- GI50 [20]: 4.19 µM
- IC50 [20]: 4.89 µM
- GI50 [21]: 0.779 µM
- IC50 [21]: 0.812 µM
- GI50 [22]: 1.13 µM
- IC50 [22]: 1.3 µM
- GI50 [23]: 2.06 µM
- IC50 [23]: 2.1 µM
- GI50 [24]: 10.6 µM
- IC50 [24]: 15.2 µM
- GI50 [25]: 1.56 µM
- IC50 [25]: 1.6 µM
- GI50 [26]: 2.89 µM
- IC50 [26]: 3.41 µM
- GI50 [27]: 0.666 µM
- IC50 [27]: 0.795 µM
- GI50 [28]: 8.17 µM
- IC50 [28]: 9.13 µM
- GI50 [29]: 7.3 µM
- IC50 [29]: 8.97 µM
- GI50 (Homo sapiens, Hs-578T, HS578T, breast): 25.1 µM
- GI50 [30]: 6.99 µM
- IC50 [30]: 10.1 µM
- GI50 (Homo sapiens, IMR-90, IMR90, lung): 11.8 µM
- GI50 [31]: 5.79 µM
- IC50 [31]: 6.64 µM
- GI50 [32]: 11.2 µM
- IC50 [32]: 26.8 µM
- GI50 [33]: 1.06 µM
- IC50 [33]: 1.17 µM
- GI50 [34]: 5.17 µM
- IC50 [34]: 12.7 µM
- GI50 [35]: 0.343 µM
- IC50 [35]: 0.522 µM
- GI50 (Homo sapiens, LoVo, colon): 4.36 µM
- IC50 (Homo sapiens, LoVo, colon): 4.66 µM
- GI50 [36]: 2.09 µM
- IC50 [36]: 6.07 µM
- GI50 [37]: 8.37 µM
- IC50 [37]: 13.8 µM
- GI50 [38]: 2.48 µM
- IC50 [38]: 2.66 µM
- GI50 (Homo sapiens, MDA-MB-436, MDAMB436, breast): 13.3 µM
